Test results reported in patent publication US7635663B2, “Method for thinning fruit blossoms using eugenol” (The United States of America as represented by the …, priority 2006, dated 2009).
Where two headings read alike, the source gives them in different places.

How the values were obtained:
[1] = system: 'Gala' on M.26 apple trees; format: in vivo, Malus domestica; settings: 2005; for Fruit (no./tree) / Fruit weight (kg/tree) / Individual fruit weight: Apple 'Gala'
Procedure: On Apr. […] Treatments were arranged in 4-tree plots and there were 4 blocks containing all 8 treatments. Data was collected from 2 trees per plot, so each treatment was an average of 8 trees. Data was analyzed by analysis of variance and Duncan's Multiple Range Test.

[2] = system: 'Bisbee Spur Delicious' on MM.111 apple trees; test: Apple blossom thinning with eugenol and ATS, 2004; format: in vivo, Malus domestica
Procedure: Each tree was an experimental unit, surrounded by buffer trees, with 4 single tree replications arranged in a completely randomized design.
Four branches per tree, each with 25 flowers, were measured; two branches opposite each other were perpendicular to the drive alley and the other two branches were opposite each other and parallel to the drive alley.

[3] = system: 'Redhaven' on Lovell peach; test: Peach blossom thinning with different thinning agents, mist blower back pack sprayer, 2004; format: in vivo, Prunus persica; settings: 2004
Procedure: In 2004, fewer concentrations of eugenol were tested in comparison with other chemical blossom thinners in apple and peach. […] 2004 with a pressurized power mist blower back pack sprayer. Peach trees had been planted in April 1997 with a 3-m spacing between trees. Treatments included eugenol and Matran® each applied at 1, 2, 4, and 8%. […] Each tree was an experimental unit, buffer trees surrounded each treated tree, and there were 5 replications arranged in a completely randomized design.
Response variables included (1) percent flowers wilted 24 hr after application based on a 100 flower (peach) or flower cluster (apple) sample per tree; (2) number apple fruit retained after June drop from the same 100-flower sample per tree; (3) number and weight of fruit per tree at harvest by size category; (4) visual estimation from two people of foliar and shoot damage. Four branches per tree, each with 25 flowers, were measured; two branches opposite each other were perpendicular to the drive alley and the other two branches were opposite each other and parallel to the drive alley.

[4] = Apple 'Bisbee', applied at 3.5 gal/A, 2004

## ammonium thiosulfate [ATS, reference compound]
[1]; thinner applied at 2%
  Fruit (no./tree): 789 no./tree
  Fruit weight (kg/tree): 83.3 kg/tree
  Individual fruit weight: 109 g
[1]; thinner applied at 4%
  Fruit (no./tree): 706 no./tree
  Fruit weight (kg/tree): 79.8 kg/tree
  Individual fruit weight: 120 g
[1]; Apple
  Performance as thinner: not a good thinner
[2]; [4]
  Average fruit weight (g): 153 a g
  Total yield per tree (no.): 570 a no.
[2]; Apple 'Bisbee', applied at 3.5 gal/A, April 2004
  Flower burn back (% of flowers injured): 50 a %
[2]; Apple, 2004
  Effect on yield: did not affect yield
[3]
  Fruit number per peach tree compared with control: reduced
[3]; applied at 5.25 gal/A
  Average fruit weight (g): 125 a g
  Total yield per tree (no.): 345 c no.
